Measurements published in patent US20250270227A1, “CAMPTOTHECIN DERIVATIVE, AND PHARMACEUTICAL COMPOSITION AND USE THEREOF” (SIMCERE ZAIMING PHARMACEUTICAL CO., LTD., priority 2021, published 2025).

Assay: Membrane permeability and transport characteristics (Caco-2 Transwell)
Type: in vitro ADME
Conditions: human, pH 7.4; for efflux ratio at 2 h, 10 μM: Caco-2, Papp (B-A)/Papp (A-B); for Papp A→B at 2 h, 10 μM: Caco-2, apical to basal; for Papp B→A at 2 h, 10 μM: Caco-2, basal to apical
Protocol: The membrane permeability and transport characteristics of the compounds of the present disclosure were determined by the following experimental method.
• 1. Caco-2 cells (ATCC) • 2. HEPES (Solarbio 804D049), penicillin/streptomycin (Solarbio 20200109) and PBS (Solarbio 20200620) • 3. Fetal bovine serum (FBS) (Sigma WXBD0055V), fluorescein (Sigma MKCJ3738) and NaHCO3 (Sigma SLBZ4647) • 4. Hank's balanced salt solution (HBSS) (Gibco 2085528), non-essential amino acid (NEAA) (Gibco 2211548) and Trypsin/EDTA (Gibco 2120732) • 5. High glucose DMEM (Corning 20319014) • 6. HTS Transwell-96 Well Permeable (Corning, 3391) • 7. Resistance tester (Millipore, Millicell® ERS-2) • 8. Cellometer® Vision (Nexcelom Bioscience) • 9. Infinite 200 PRO microplate reader (Tecan, Infinite M200PRO) • 10. Positive control compounds metoprolol (Sinopharm 100084-201403), erythromycin (MCE 84550) and cimetidine (Sinopharm 100158-201406) • 11. ABI QTrap 5500 liquid chromatography-mass spectrometry
• 1) Transport buffer (HBSS containing 25 mM HEPES, pH 7.4) was prepared: 5.958 g of HEPES and 0.35 g of NaHCO3 were accurately weighed, 900 mL of pure water was added to dissolve same, then 100 mL of 10×HBSS was added, uniform stirring was performed, the pH was adjust to 7.4, and filtering was performed. • 2) Caco-2 cell culture medium was prepared: FBS, penicillin/streptomycin, kanamycin and NEAA were added to high glucose DMEM (containing L-glutamine) medium to prepare a cell culture medium containing 10% FBS, 100 U/mL penicillin/0.1 mg/mL streptomycin, 0.6 μg/mL kanamycin and 1×NEAA. • 3) Cells were cultured in T-75 culture flasks in an incubator at 37° C. and 5% CO2, and the medium was discarded when the cell growth density reached 80-90%. The cells were rinsed with 5 mL of PBS, 1.5 mL of Trypsin/EDTA was added, then the cells were incubated in an incubator at 37° C. for 5-10 min until the cells fell off in the form of quicksand, and finally Trypsin/EDTA was neutralized with an FBS-containing medium. 4) The cell suspension was centrifuged at 120 g for 10 min, and the supernatant was discarded. • 5) The cell culture medium was added to re-suspend the cells to obtain a cell suspension with a density of […] cells/mL.
• 1) 50 μL of medium was added to each well of Transwell chamber, and 25 mL of medium was added to the lower layer. The Transwell chamber was preheated in an incubator at 37° C. and 5% CO2 for 1 h. • 2) 50 μL of the cell suspension was added to each well of the preheated Transwell chamber to a final seeding density of 2.4×10^5 cells/cm. • 3) The cells were cultured for 14-18 days, the medium was changed every other day, and the medium was changed within 48 h after the initial seeding in the plate. The medium must be changed one day before the experiment.
• 1) After 14 days of cell culture, the cells were fused and differentiated, ready for transport experiment. • 2) The resistance of monolayer cell membrane was measured by the resistance tester, and the resistance of each well was recorded. • 3) After the measurement was completed, the Transwell culture plate was re-incubated. • 4) The TEER value was calculated: […]

Compound: CC[C@@]1(O)C(=O)OCc2c1cc1n(c2=O)Cc2c-1nc1cc3c(cc1c2CNC(=O)C(O)C1CC1)OCO3 (stereo partly drawn) [Compound 14, 2-cyclopropyl-N-(((S)-7-ethyl-7-hydroxy-8,11-dioxo-7,8,11,13-tetrahydro-10H-[1,3]dioxolo[4,5-g]pyrano[3′,4′:6,7]indolizino[1,2-b]quinolin-14-yl)methyl)-2-hydroxyacetamide]
- efflux ratio at 2 h, 10 μM: 15.2
- Papp A→B at 2 h, 10 μM: 0.26 ×10⁻⁶ cm/s
- Papp B→A at 2 h, 10 μM: 3.95 ×10⁻⁶ cm/s

Compound: [2H]C1([2H])Oc2cc3nc4c(c(CNC(=O)C(O)C5CC5)c3cc2O1)Cn1c-4cc2c(c1=O)COC(=O)[C@]2(O)CC (stereo partly drawn) [Compound 39, 2-cyclopropyl-N-(((S)-7-ethyl-7-hydroxy-8,11-dioxo-7,8,11,13-tetrahydro-10H-[1,3]dioxolo[4,5-g]pyrano[3′,4′:6,7]indolizino[1,2-b]quinolin-14-yl-2,2-d2)methyl)-2-hydroxyacetamide]
- efflux ratio at 2 h, 10 μM: 5.9
- Papp A→B at 2 h, 10 μM: 0.71 ×10⁻⁶ cm/s
- Papp B→A at 2 h, 10 μM: 4.21 ×10⁻⁶ cm/s
